The record followed here is patent US8067627B2, “Zinc-monocysteine complex and method of using zinc-cysteine complexes” (priority 2000, dated 2011).

What all share (type): cell-based
Test [1] deals with catalase. The test can be described thus: Catalase activity in cultured retinal pigment epithelial cells. The settings on record: 0, 15, 30 or 100 μM, compared with zinc acetate, zinc chloride, zinc sulfate. Here is the method: (§1) The biological efficacy was tested by adding 0, 15, 30 or 100 μM of zinc cysteine to cultured retinal pigment epithelial cells in comparison to zinc salts (zinc acetate, zinc chloride, and zinc sulfate).
(§2) The complex of zinc-cysteine increased the activity of antioxidant enzymes catalase and glutathione peroxidase, and the antioxidant protein metallothionein in cultured retinal pigment epithelial cells more efficiently and potently than zinc acetate, zinc chloride, and zinc sulfate. […] The zinc-cysteine complex may be readily absorbed and distributed inside the cell to provide beneficial needs in regulating the antioxidant economy.

For test [2], the system named is metallothionein. As to the kind of experiment: Metallothionein in cultured retinal pigment epithelial cells. To be noted: 0, 15, 30 or 100 μM, compared with zinc acetate, zinc chloride, zinc sulfate. Here is the method:
as §1, §2

Test [3] concerns glutathione peroxidase. As to the kind of experiment: Glutathione peroxidase activity in cultured retinal pigment epithelial cells. The settings on record: 0, 15, 30 or 100 μM, compared with zinc acetate, zinc chloride, zinc sulfate. The protocol: as §1, §2
Test [4] relates to RPE cells. As to the kind of experiment: Protection of RPE cells from increasing hydrogen peroxide concentrations. The settings on record: compared with the zinc salts (zinc acetate, zinc chloride, zinc sulfate). The protocol:
as §1, §2

As for `N[C@@H](CS)C(=O)O` [cysteine], the “activity of antioxidant enzyme catalase” value in test [1] is on record as “did not have an effect”. Besides, in test [2], the antioxidant protein metallothionein entry is recorded as “did not have an effect”.

Consider `NC1C[S][Zn][O]C1=O` (stereo not drawn) [zinc-cysteine, zinc-monocysteine complex], for which, in test [1], the “activity of antioxidant enzyme catalase” value is reported as “increased”. In addition, the “activity of antioxidant enzyme glutathione peroxidase” value in test [3] is listed as “increased”. Further, the antioxidant protein metallothionein entry in test [2] is given as “increased”. Further, the “protecting RPE cells from increasing hydrogen peroxide concentrations” value in test [4] is “more potent”.
